Consider 4 compounds from publication PMC9043592, “New triterpenes from Cimicifuga yunnanensis down-regulating the mRNA expression of CD147, MMP-2, and MMP-9” (RSC Advances, 2021).

The subject of test [1] is migration of PMA-induced THP-1 cells. The experiment in a line: Wound-healing (scratch wound) migration assay. The note with it: Homo sapiens, 24 h incubation, read-out: IC50, decrease of number of migrated cells. It is filed as cell-based. Here is the method:
(§1) Human monocytic THP-1 cells were cultured at 37 °C by DMEM/F12 medium supplemented with 10% fetal bovine serum and 1% penicillin/streptomycin in a humidified atmosphere of 5% CO2. Cells (5 × 10^5 to 10^6 per mL) were subjected to differentiation by 100 nM PMA for 24 h with DMEM/F12 serum medium. After incubation, the adherent cells were washed with DMEM/F12. Nonattached cells were removed by aspiration.
The differentiated THP-1 cells were seeded and grown into full confluence in 6 well plates. 2% FBS DMEM/F12 media was used to inactivated cell proliferation for 12 h, then wounded with pipette tips. Fresh DMEM/F12 medium with or without 1, 3, 10, 25, and 50 μM of 7 was added to the scratched monolayers. Images were took after 24 hours using a Nickon inverted microscope (magnification, 10×). The migration cell number of PMA-induced THP-1 cell group was defined as control. All the experiments were performed in triplicate.

The subject of the next test is MMP-9 mRNA expression. The experiment in a line: q-PCR, mRNA expression of MMP-9 in PMA-induced THP-1 cells. To be noted: 24 h. The class given is cell-based, Human. Here is the method:
as §1
(§2) RevertAid™ First Strand cDNA Synthesis Kit was applied to extract total RNA of differentiated THP-1 cells treated with compounds 3–5, 9 and 11 (10 μM), along with 7 and 8 (1, 3, 10, 25, and 50 μM) for 24 h (5 × 10^5 cells per mL) following the manufacturer's instructions. cDNA was synthesized from the isolated total RNA based on the instruction of the PrimeScript RT reagent Kit. […]
(§3) After reverse transcription, cDNA was used to carry out real-time quantitative RT-PCR on ProFlex™ PCR system by SYBR Premix Ex Taq (Takara). […] Internal reference is GAPDH mRNA, and fold changes of mRNA expression for each target relative to GAPDH were calculated by the 2^−ΔΔCt method. Expression of mRNA is determined as the change in mRNA copy numbers relative to negative control cells (undifferentiated THP-1 cells). […]

In test [2] the test system is CD147 (extracellular matrix metalloproteinase inducer, EMMPRIN) mRNA expression. Briefly: q-PCR, mRNA expression of CD147 in PMA-induced THP-1 cells. To be noted: 24 h; for CD147 mRNA inhibitory effect compared with YG (positive control) / suppression of the mRNA expression of CD147 (in words): 10 μM; for IC50: Homo sapiens, q-PCR 2^-ΔΔCt, 1-50 μM, read-out: IC50, suppression of mRNA expression of CD147. The class given is cell-based, Human. Here is the method: as §1
RevertAid™ First Strand cDNA Synthesis Kit was applied to extract total RNA of differentiated THP-1 cells treated with compounds 3–5, 9 and 11 (10 μM), along with 7 and 8 (1, 3, 10, 25, and 50 μM) for 24 h (5 × 10^5 cells per mL) following the manufacturer's instructions. cDNA was synthesized from the isolated total RNA based on the instruction of the PrimeScript RT reagent Kit. Briefly, PrimeScript RT Enzyme Mix 1 (0.5 μL), 5 × PrimeScriptTM Buffer (2 μL), oligo dt Primer (0.5 μL) and Random 6 mers (0.5 μL) were gently mixed with 1 μg RNA from each sample to a reaction volume of 10 μL with RNase free water, then incubated for 15 minutes at 37 °C to activate the reverse transcriptase enzyme. Finally, the reaction was stopped by 85 °C for 5 seconds.
After reverse transcription, cDNA was used to carry out real-time quantitative RT-PCR on ProFlex™ PCR system by SYBR Premix Ex Taq (Takara). The final volume of TR-PCR reaction is 25 μL, containing 12.5 μL SYBR green master mix, 1 μL cDNA, 0.5 μL each forward and reverse primer, and 10.5 μL nuclease-free water. For information of primers see Table S1. ^† Thermal cycling conditions for all genes were as follows: template pre-denaturation (10 min at 95 °C), denaturation (15 seconds at 95 °C), annealing and extension (30 seconds at 60 °C) for 40 cycles. Internal reference is GAPDH mRNA, and fold changes of mRNA expression for each target relative to GAPDH were calculated by the 2^−ΔΔCt method. Expression of mRNA is determined as the change in mRNA copy numbers relative to negative control cells (undifferentiated THP-1 cells). All the experiments were carried out in triplicate.

Another test has as its system MMP-2 mRNA expression. The experiment in a line: q-PCR, mRNA expression of MMP-2 in PMA-induced THP-1 cells. The class given is cell-based, Human. To be noted: 24 h. Here is the method: as §1, §2, §3
In test [3] the test system is CD147 and MMPs mRNA expression. On the set-up: method as in PMID 35541353, doi:10.1016/j.phytol.2021.01.009. The note with it: previously identified CTs from C. foetida; cited from earlier work.

On to `CC1CC(C(O)C(C)(C)O)OC2(O)C(=O)C3(C)C4=CCC5C(C)(C)C(=O)CCC56CC46CC(O)C3(C)C12` [Compound 7, (23R,24S)-12β-Hydroxy-7(8)-en-3,15-dione-hydroxyshengmanol], for which the IC50 came to 5.87 ± 0.27 µM in test [1]; 11.6 ± 0.23 µM in the test on MMP-9 mRNA expression (Homo sapiens, q-PCR, 1-50 μM, read-out: IC50, down-regulation of mRNA expression of MMP-9); 3.38 ± 0.27 µM in test [2]; 6.32 ± 0.31 µM in the test with MMP-2 mRNA expression (Homo sapiens, q-PCR, 1-50 μM, read-out: IC50, down-regulation of mRNA expression of MMP-2). In test [2], the “CD147 mRNA inhibitory effect compared with YG (positive control)” value is given as “more potent than YG”. Also, the “suppression of the mRNA expression of CD147 (in words)” value in test [2] is given as “noticeably suppressed”.

For the compound yunnanterpene G [YG], in test [3], the “inhibitions on CD147 and MMPs mRNA expression (in words)” value was “notable inhibitions”.

Take 12β-hydroxycimiacerol [HC]: the “inhibitions on CD147 and MMPs mRNA expression (in words)” value in test [3] is “notable inhibitions”.

For the compound `CC1C(O)C2(OC3CC4(C)C5CCC6C(C)(C)C(O)CCC67CC57CCC4(C)C31)OC2C(C)(C)O` (stereo not shown) [Compound 8, Actaeaepol], in the test on MMP-9 mRNA expression (10 μM, P < 0.01), the “decrease of MMP-9 mRNA expression” value is recorded as 25%. For the same compound, in test [2], the “CD147 mRNA inhibitory effect compared with YG (positive control)” value is “same level of activity as YG”, the “suppression of the mRNA expression of CD147 (in words)” value is “noticeably suppressed” and the IC50 worked out at 8.25 ± 0.33 µM. Further, the “decrease of MMP-2 mRNA expression” value in the test with MMP-2 mRNA expression (10 μM, P < 0.01) came out at 35%.

A word on the IC50: it is the concentration needed to halve the response being measured.
